In brackets after ≈: the same amount, converted by molar mass.

As usually defined, the IC50 is the concentration needed to halve the response being measured.

Series [1] deals with PANC-1. As to the kind of experiment: Antitumor activity against human PANC-1. The settings on record: pooled result: one value given for 3 cell lines, strains, targets or settings. The format is functional, cell-based.
Series [2] concerns L5178Y. As to the kind of experiment: Cytotoxicity against mouse L5178Y. The format is toxicity, cell-based.
Series [3] has as its system PANC-1. Description: Antitumor activity against human PANC-1 cells assessed as cell growth inhibition incubated for 48 hrs by CCK-8 assay. The settings on record: PANC-1, 48 h. The format is functional, cell-based. On the technique in general: Formazan colour is commonly taken as a measure of viable cells.
In series [4] the test system is SW1990. Description: Antitumor activity against human SW1990 cells assessed as cell growth inhibition incubated for 48 hrs by CCK-8 assay. The format is functional, cell-based. The settings on record: SW1990, 48 h.
For series [5], the system named is COLO 201. As to the kind of experiment: Antitumor activity against human COL0201 cells assessed as cell growth inhibition incubated for 3 days. It is filed as functional, cell-based. The settings on record: COLO 201, 72 h.
Series [6] relates to HeLa. As to the kind of experiment: Antitumor activity against human HeLa cells assessed as cell growth inhibition incubated for 3 days. It is filed as functional, cell-based. The following applies: 72 h.
In series [7] the test system is C-33-A. Description: Antitumor activity against human C33A cells assessed as cell growth inhibition incubated for 3 days. It is filed as functional, cell-based. The settings on record: 72 h.
Series [8] concerns MCF7. Description: Antitumor activity against human MCF7 cells assessed as cell growth inhibition incubated for 3 days. The format is functional, cell-based. The following applies: MCF7, 72 h.
Series [9] deals with BXPC-3. Description: Antitumor activity against human BXPC-3 cells incubated for 48 to 72 hrs by MTS Assay. The format is functional, cell-based.
Series [10] has as its system Capan-2. Description: Antitumor activity against human Capan-2 cells incubated for 48 to 72 hrs by MTS Assay. The format is functional, cell-based.
The test system of series [11] is PANC-1. As to the kind of experiment: Antitumor activity against human PANC-1 cells incubated for 48 to 72 hrs by MTS Assay. It is filed as functional, cell-based.
For series [12], the system named is NCI-H1299. Description: Antiproliferative activity against human H1299 cells incubated for 72 hrs by absorbance based assay. The format is functional, cell-based. The following applies: NCI-H1299, 72 h.
The subject of series [13] is HeLa. As to the kind of experiment: Antiproliferative activity against human HeLa cells incubated for 72 hrs by absorbance based assay. The format is functional, cell-based.
Series [14] has as its system HepG2. As to the kind of experiment: Antitumor activity against human HepG2 incubated for 48 hrs by MTT assay. The settings on record: HepG2, 48 h. It is filed as functional, cell-based.
In series [15] the test system is MCF7. Description: Antitumor activity against human MCF-7 incubated for 48 hrs by MTT assay. The settings on record: MCF7, 48 h. It is filed as functional, cell-based.
Series [16] relates to HeLa. As to the kind of experiment: Antitumor activity against human HeLa cells assessed as cell growth inhibition incubated for 72 hrs by MTT assay. The format is functional, cell-based.

Turning to `CO[C@H]1/C=C/C=C/C=C/C[C@H](OC(=O)[C@@H](C)NC(=O)C2=CCCCC2)[C@H](C)[C@@H](O)/C(C)=C\CCc2cc(O)cc(c2)NC(=O)C1`, half-maximal inhibition in [1] (IC50) required 0.035 µM.
On the same count and under the same terms, under `CO[C@H]1/C=C/C=C/C=C/C[C@H](OC(=O)[C@@H](C)NC(=O)CC(C)C)[C@H](C)[C@@H](O)/C(C)=C\CCc2cc(O)cc(c2)NC(=O)C1` stands 0.17 µM.
Same read-out and setting: with `CO[C@H]1/C=C/C=C/C=C/C[C@H](OC(=O)[C@@H](C)NC(=O)CCC(C)C)[C@H](C)[C@@H](O)/C(C)=C\CCc2cc(O)cc(c2)NC(=O)C1` the figure was 0.17 µM.
`CO[C@H]1/C=C/C=C/C=C/C[C@H](OC(=O)[C@@H](C)NC(=O)C2CCCCC2)[C@H](C)[C@@H](O)/C(C)=C\CCc2cc(O[C@@H]3O[C@H](CO)[C@@H](O)[C@H](O)[C@H]3O)cc(c2O)NC(=O)C1` showed an MIC in series [2] of 1 µM (≈ 0.801 µg/mL).
Turning to `CO[C@@H]1CC(=O)N2c3cc(O)cc4c3O[C@@H](/C=C/C=C/C[C@H](OC(=O)[C@@H](C)NC(=O)C3CCCCC3)[C@H](C)[C@@H](O)/C(C)=C\CC4)[C@H]12`, the IC50 in [3] and in series [4] was 8.29 µM each time.
Take `CO[C@H]1/C=C/C=C/C=C/C[C@H](OC(=O)[C@@H](C)NC(=O)C2CCCCC2)[C@H](C)[C@@H](O)/C(C)=C\CCc2cc3c(c(c2O)NC(=O)C1)SCC(=O)N3`: the IC50 in [5], in series [6], in series [7] and in [8] was 0.00085 µM in each case.
Take `CO[C@@H]1CC(=O)Nc2c(O)c3cc4c2[C@H](/C=C/C=C/C[C@H](O)[C@H](C)[C@@H](OC(=O)[C@@H](C)NC(=O)C2CCCCC2)/C(C)=C\CC3)[C@H]1O4`: the IC50 in series [3] and in [4] was 7.79 µM throughout.
Turning to `C/C=C(\C)C(=O)N[C@H](C)C(=O)O[C@H]1C/C=C/C=C/C=C/[C@H](OC)CC(=O)Nc2cc(O)cc(c2)CC/C=C(/C)[C@H](O)[C@H]1C`, the IC50 in series [9], in [10] and in series [11] was no less than 10 µM throughout.
Regarding `C[C@@H]1[C@@H](O)[C@H](C)[C@@H](O)CCc2cc(O)cc(c2)NC(=O)C[C@@H](O)/C=C/C=C/C=C/C[C@@H]1O`, the IC50 is greater than 10 µM in series [12] and 10 µM in series [13].
Take `CO[C@@H]1CC(=O)Nc2c(O)c3cc4c2[C@@H](/C=C/C=C/C[C@H](OC(=O)[C@@H](C)NC(=O)C2CCCCC2)[C@H](C)[C@@H](O)/C(C)=C\CC3)[C@@H]1O4`: the IC50 in series [3] and in [4] was 5.81 µM throughout.
`CO[C@@H]1CC(=O)N2c3cc(O)cc4c3O[C@H](/C=C/C=C/C[C@H](O)[C@H](C)[C@@H](O)/C(C)=C\CC4)[C@H]12`: the IC50 in [12] is greater than 10 µM; in series [13], 10 µM.
On to `COc1cc2c(O)c(c1)NC(=O)C[C@@H](OC)/C=C/C=C/C=C/C[C@H](OC(=O)[C@@H](C)NC(=O)C1CCCCC1)[C@H](C)[C@@H](O)/C(C)=C\CC2`, for which the MIC in series [2] came out at 0.17 µM (≈ 0.111 µg/mL).
With `CO[C@H]1/C=C/C=C/C=C/C[C@H](O)[C@H](C)[C@@H](O)/C(C)=C\CCc2c(O)c(cc3ncsc23)NC(=O)C1`, the values for the IC50 in [12] and in series [13] were greater than 10 µM and 10 µM, respectively.
For the compound `CO[C@@H]1CC(=O)N2c3cc(O)cc4c3O[C@@H](/C=C/C=C/C[C@H](O)[C@H](C)[C@@H](O)/C(C)=C\CC4)[C@@H]12`, the figures for the IC50 in series [12] and in series [13] were greater than 10 µM and 10 µM, respectively.
In the case of `CO[C@H]1/C=C/C=C/C=C/C[C@H](OC(=O)[C@@H](C)NC(=O)C2=CCCCC2)[C@H](C)[C@@H](O)/C(C)=C\CCc2cc3c(c(c2O)NC(=O)C1)SCC(=O)N3`, the IC50 in series [5], in series [6], in series [7] and in series [8] was 0.0031 µM in each case.
Take `CO[C@@H]1CC(=O)Nc2c(O)c3cc4c2[C@H](/C=C/C=C/C[C@H](OC(=O)[C@@H](C)NC(=O)C2CCCCC2)[C@H](C)[C@@H](O)/C(C)=C\CC3)[C@H]1O4`: the IC50 in [3] and in series [4] was 3.99 µM in each case.
On to `CO[C@H]1/C=C/C=C/C=C/C[C@H](OC(=O)[C@@H](C)NC(=O)C2=CCCC2)[C@H](C)[C@@H](O)/C(C)=C\CCc2cc(O)cc(c2)NC(=O)C1`, for which the 50% inhibitory concentration (IC50) in series [14] and in [15] was 6.74 µM each time.
Regarding `CO[C@H]1/C=C/C=C/C=C/C[C@H](OC(=O)[C@@H](C)NC(=O)C2CCCCC2)[C@H](C)C(=O)/C(C)=C\CCc2cc(O)cc(c2O)NC(=O)C1`, the IC50 in series [16] was greater than 10 µM.
On to `CO[C@H]1/C=C/C=C/C=C/C[C@H](OC(=O)[C@@H](C)NC(=O)CC(C)C)[C@H](C)[C@@H](O)/C(C)=C\CCc2c(O)c(cc3c2SCC(=O)N3)NC(=O)C1`, for which the IC50 in series [5], in [6], in series [7] and in series [8] was 0.15 µM throughout.
On to `CO[C@H]1/C=C/C=C/C=C/C[C@H](OC(=O)[C@@H](C)NC(=O)C2CCC2)[C@H](C)[C@@H](O)/C(C)=C\CCc2cc(O)cc(c2)NC(=O)C1`, for which the IC50 in [14] and in series [15] was 7.33 µM each time.

The values above are taken from ChEMBL document CHEMBL5247589, “Natural occurrence, bioactivity, and biosynthesis of triene-ansamycins” (Eur J Med Chem, 2022).
